Assay results published in US20260216170A1, “TETRAHYDROISOQUINOLINE HETEROBIFUNCTIONAL BCL-XL DEGRADERS” (Treeline Biosciences, Inc., priority 2023, published 2026).

Target: T1, Human BCL-XL protein (N-terminal HiBiT tagged BCL-XL expressed in HT1080 cells) (Homo sapiens, UniProt Q07817)
T1 construct: expressed in transfected cells; host or cells: HT-1080 (ATCC CCL-121), stably transduced with lentivirus pLV-UBC-N-HiBiT-BCL-XL-PGK-puro and selected with puromycin
Experiment: HiBiT Based Degradation Assay
Format: cell-based
Conditions: 24 hours incubation; for DC50: BCL-XL degradation, HT1080 cells expressing N-HiBiT-BCL-XL, normalized with DMSO control, geometric mean for multiple data points, read-out: EC50 (24 h); for Ymin (24 h): bottom of BCL-XL degradation curve (remaining HiBiT-BCL-XL signal vs DMSO control), HT1080 cells
Source text: HiBiT Based Degradation Assay
Human BCL-XL protein coding open reading frame fused with N-terminal HiBiT coding sequence (N-HiBiT-BCL-XL) was synthesized from Integrated DNA Technologies (IDT). Next, N-HiBiT-BCL-XL sequence was cloned into pLV-UBC-PGK-Puro, a lentivirus plasmid purchased from Vectorbuilder, to generate pLV-UBC-N-HiBiT-BCL-XL-PGK-puro. Lentiviral particles were generated from Lenti-X™ 293T cells (Clontech) by co-transfection of pLV-UBC-N-HiBiT-BCL-XL-PGK-puro plasmids and lentiviral packaging plasmid mix (Cellecta). HT-1080 [HT1080](ATCC CCL-121™) cells were infected with the lentivirus, and HT1080 cells stably integrated with the lentiviral vector were established by incubation with 1 μg/mL puromycin (Thermofisher). HT1080 cells expressing N-terminal HiBiT tagged BCL-XL were dispensed into 384-well plates pre-spotted with compounds at varying concentrations. Three thousand cells were seeded into each well in 40 μL of RPMI 1640 media. After 24 hours of incubation at 37° C. with 5% CO2, 30 μL of the NANO-GLO® HiBiT Lytic Detection System working solution (Promega) was added to each well and incubated at room temperature for 30 min. After incubation, luminescence was read on a PHERAstar FSX Plate Reader (BMG). BCL-XL degradation at each indicated concentration was normalized with DMSO control. The BCL-XL degradation curves were plotted using a four-parameter logistic model. For compounds displaying hook effects, curve fitting was performed using bottom point of hook curves (i.e., the point of Ymin) as bottom plateau to calculate EC50. For compounds with multiple data points, the geometric mean is presented.

T1 sequence (Q07817 whole entry): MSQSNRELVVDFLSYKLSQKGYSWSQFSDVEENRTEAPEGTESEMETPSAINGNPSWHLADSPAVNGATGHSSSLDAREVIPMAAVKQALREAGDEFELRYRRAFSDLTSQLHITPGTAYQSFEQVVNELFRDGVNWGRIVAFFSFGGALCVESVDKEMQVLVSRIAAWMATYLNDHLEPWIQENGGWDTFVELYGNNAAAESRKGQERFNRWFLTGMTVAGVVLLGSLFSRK

SMILES	DC50 [nM]	Ymin (24 h)
Cn1nc(C2CCC(=O)NC2=O)c2ccc(NC(=O)CN3CCC(CCCOc4ccc(-c5ccc(N6CCc7ccnc(C(=O)Nc8nc9ccccc9s8)c7C6)nc5C(=O)O)c(C(F)(F)F)c4)CC3)cc21 (stereo not drawn) [Compound 157, 6-[8-(1,3-benzothiazol-2-ylcarbamoyl)-3,4-dihydro-1H-2,7-naphthyridin-2-yl]-3-[4-[3-[1-[2-[[3-(2,6-dioxo-3-piperidyl)-1-methyl-indazol-6-yl]amino]-2-oxo-ethyl]-4-piperidyl]propoxy]-2-(trifluoromethyl)phenyl]pyridine-2-carboxylic acid]	10 to 100	A (Ymin < 30%)
Cc1cc(OCC2CC3(CCN(CC(=O)Nc4ccc5c(C6CCC(=O)NC6=O)nn(C)c5c4C)CC3)C2)ccc1-c1ccc(N2CCc3cccc(C(=O)Nc4nc5ccccc5s4)c3C2)nc1C(=O)O (stereo not drawn) [Compound 124, 6-(8-(benzo[d]thiazol-2-ylcarbamoyl)-3,4-dihydroisoquinolin-2(1H)-yl)-3-(4-((7-(2-((3-(2,6-dioxopiperidin-3-yl)-1,7-dimethyl-1H-indazol-6-yl)amino)-2-oxoethyl)-7-azaspiro[3.5]nonan-2-yl)methoxy)-2-methylphenyl)picolinic acid]	< 10	B (30% ≤ Ymin < 50%)
Cn1nc(C2CCC(=O)NC2=O)c2ccc(NC(=O)CN3CCC4(CC3)CC(Oc3ccc(-c5ccc(N6CCc7ccnc(C(=O)Nc8nc9ccccc9s8)c7C6)nc5C(=O)O)c(C(F)(F)F)c3)C4)c(F)c21 (stereo not drawn) [Compound 203]	10 to 100	B (30% ≤ Ymin < 50%)
Cn1nc(C2CCC(=O)NC2=O)c2ccc(NC(=O)CN3CCC4(CC3)CC(Oc3ccc(-c5ccc(N6CCc7ccnc(C(=O)Nc8nc9ccccc9s8)c7C6)nc5C(=O)O)c(C(F)(F)F)c3)C4)nc21 (stereo not drawn) [Compound 206]	10 to 100	B (30% ≤ Ymin < 50%)
Cc1cc(OCCCC2CCN(Cc3nc4ccc(C5CCC(=O)NC5=O)cc4[nH]3)CC2)ccc1-c1ccc(N2CCc3cccc(C(=O)Nc4nc5ccccc5s4)c3C2)nc1C(=O)O (stereo not drawn) [Compound 2003]	10 to 100	C (50% ≤ Ymin < 70%)
Cn1nc(C2CCC(=O)NC2=O)c2ccc(NC(=O)CN3CCC4(CC3)CC(COc3cccc(-c5ccc(N6CCc7cccc(C(=O)Nc8nc9ccccc9s8)c7C6)nc5C(=O)O)c3C(F)(F)F)C4)c(F)c21 (stereo not drawn) [Compound 185]	10 to 100	B (30% ≤ Ymin < 50%)
COc1c(NC(=O)CN2CCC3(CC2)CC(Oc2ccc(-c4ccc(N5CCc6ccnc(C(=O)Nc7nc8ccccc8s7)c6C5)nc4C(=O)O)c(C(F)(F)F)c2)C3)ccc2c(C3CCC(=O)NC3=O)nn(C)c12 (stereo not drawn) [Compound 171, 6-(8-(benzo[d]thiazol-2-ylcarbamoyl)-3,4-dihydro-2,7-naphthyridin-2(1H)-yl)-3-(4-((7-(2-((3-(2,6-dioxopiperidin-3-yl)-7-methoxy-1-methyl-1H-indazol-6-yl)amino)-2-oxoethyl)-7-azaspiro[3.5]nonan-2-yl)oxy)-2-(trifluoromethyl)phenyl)picolinic acid]	10 to 100	B (30% ≤ Ymin < 50%)
Cn1nc(C2CCC(=O)NC2=O)c2ccc(NC(=O)CN3CCC(CCCOc4ccc(-c5ccc(N6CCc7cccc(C(=O)Nc8nc9ccccc9s8)c7C6)nc5C(=O)O)c(C(F)(F)F)c4)CC3)c(F)c21 (stereo not drawn) [Compound 183]	10 to 100	B (30% ≤ Ymin < 50%)
Cc1c(OCCCC2CCN(CC(=O)Nc3ccc4c(C5CCC(=O)NC5=O)nn(C)c4c3)CC2)cccc1-c1ccc(N2CCc3ccnc(C(=O)Nc4nc5ccccc5s4)c3C2)nc1C(=O)O (stereo not drawn) [Compound 106, 6-(8-(benzo[d]thiazol-2-ylcarbamoyl)-3,4-dihydro-2,7-naphthyridin-2(1H)-yl)-3-(3-(3-(1-(2-((3-(2,6-dioxopiperidin-3-yl)-1-methyl-1H-indazol-6-yl)amino)-2-oxoethyl)piperidin-4-yl)propoxy)-2-methylphenyl)picolinic acid]	10 to 100	B (30% ≤ Ymin < 50%)
COc1c(NC(=O)CN2CCC3(CC2)CC(COc2ccc(-c4ccc(N5CCc6ccnc(C(=O)Nc7nc8ccccc8s7)c6C5)nc4C(=O)O)c(C(F)(F)F)c2)C3)ccc2c(C3CCC(=O)NC3=O)nn(C)c12 (stereo not drawn) [Compound 181, 6-[8-(1,3-benzothiazol-2-ylcarbamoyl)-3,4-dihydro-1H-2,7-naphthyridin-2-yl]-3-[4-[[7-[2-[[3-(2,6-dioxo-3-piperidyl)-7-methoxy-1-methyl-indazol-6-yl]amino]-2-oxo-ethyl]-7-azaspiro[3.5]nonan-2-yl]methoxy]-2-(trifluoromethyl)phenyl]pyridine-2-carboxylic acid]	10 to 100	B (30% ≤ Ymin < 50%)
Cn1nc(C2CCC(=O)NC2=O)c2ccc(NC(=O)CN3CCC(CCCOc4cccc(-c5ccc(N6CCc7cccc(C(=O)Nc8nc9ccccc9s8)c7C6)nc5C(=O)O)c4C(F)(F)F)CC3)c(F)c21 (stereo not drawn) [Compound 182]	10 to 100	B (30% ≤ Ymin < 50%)
Cc1cc(OCCC2CC3(CCN(CC(=O)Nc4ccc5c(C6CCC(=O)NC6=O)nn(C)c5c4)CC3)C2)ccc1-c1ccc(N2CCc3cccc(C(=O)Nc4nc5ccccc5s4)c3C2)nc1C(=O)O (stereo not drawn) [Compound 115, 6-(8-(benzo[d]thiazol-2-ylcarbamoyl)-3,4-dihydroisoquinolin-2(1H)-yl)-3-(4-(2-(7-(2-((3-(2,6-dioxopiperidin-3-yl)-1-methyl-1H-indazol-6-yl)amino)-2-oxoethyl)-7-azaspiro[3.5]nonan-2-yl)ethoxy)-2-methylphenyl)picolinic acid]	10 to 100	B (30% ≤ Ymin < 50%)
COc1c(NC(=O)CN2CC[C@@H](CCCOc3ccc(-c4ccc(N5CCc6cccc(C(=O)Nc7nc8ccccc8s7)c6C5)nc4C(=O)O)c(C)c3)C[C@H]2C)ccc2c(C3CCC(=O)NC3=O)nn(C)c12 (stereo partly drawn) [Compound 210d]	10 to 100	A (Ymin < 30%)
Cc1cc(OCC2CC3(CCN(CC(=O)Nc4cc5c(cc4F)c(C4CCC(=O)NC4=O)nn5C)CC3)C2)ccc1-c1ccc(N2CCc3cccc(C(=O)Nc4nc5ccccc5s4)c3C2)nc1C(=O)O (stereo not drawn) [Compound 123]	10 to 100	B (30% ≤ Ymin < 50%)
COc1c(NC(=O)CN2CCC(CCCOc3ccc(-c4ccc(N5CCc6ccnc(C(=O)Nc7nc8ccccc8s7)c6C5)nc4C(=O)O)c(C(F)(F)F)c3)CC2)ccc2c(C3CCC(=O)NC3=O)nn(C)c12 (stereo not drawn) [Compound 158, 6-[8-(1,3-benzothiazol-2-ylcarbamoyl)-3,4-dihydro-1H-2,7-naphthyridin-2-yl]-3-[4-[3-[1-[2-[[3-(2,6-dioxo-3-piperidyl)-7-methoxy-1-methyl-indazol-6-yl]amino]-2-oxo-ethyl]-4-piperidyl]propoxy]-2-(trifluoromethyl)phenyl]pyridine-2-carboxylic acid]	10 to 100	B (30% ≤ Ymin < 50%)
Cn1nc(C2CCC(=O)NC2=O)c2ccc(NC(=O)CN3CCC4(CCC(Oc5ccc(-c6ccc(N7CCc8cccc(C(=O)Nc9nc%10ccccc%10s9)c8C7)nc6C(=O)O)c(C(F)(F)F)c5)CC4)CC3)cc21 (stereo not drawn) [Compound 197]	< 10	B (30% ≤ Ymin < 50%)
Cc1cc(OC[C@H](C)CC2CCN(CC(=O)Nc3ccc4c(C5CCC(=O)NC5=O)nn(C)c4c3)CC2)ccc1-c1ccc(N2CCc3ccnc(C(=O)Nc4nc5ccccc5s4)c3C2)nc1C(=O)O (single isomer, unassigned) [Compound 140a]	< 10	A (Ymin < 30%)
COc1c(NC(=O)CN2CC[C@@H](CCCOc3cccc(-c4ccc(N5CCc6cccc(C(=O)Nc7nc8ccccc8s7)c6C5)nc4C(=O)O)c3C)C[C@H]2C)ccc2c(C3CCC(=O)NC3=O)nn(C)c12 (stereo partly drawn) [Compound 208d]	10 to 100	B (30% ≤ Ymin < 50%)
Cn1nc(C2CCC(=O)NC2=O)c2ccc(NC(=O)CN3CCC4(CC3)CC(COc3ccc(-c5ccc(N6CCc7cccc(C(=O)Nc8nc9ccccc9s8)c7C6)nc5C(=O)O)c(C(F)(F)F)c3)C4)nc21 (stereo not drawn) [Compound 148]	10 to 100	B (30% ≤ Ymin < 50%)
Cn1nc(C2CCC(=O)NC2=O)c2ccc(NC(=O)CN3CCC(CCCOc4cccc(-c5ccc(N6CCc7cccc(C(=O)Nc8nc9ccccc9s8)c7C6)nc5C(=O)O)c4C(F)(F)F)CC3)nc21 (stereo not drawn) [Compound 145]	10 to 100	C (50% ≤ Ymin < 70%)
Cn1nc(C2CCC(=O)NC2=O)c2ccc(NC(=O)CN3CCC(CCCOc4ccc(-c5ccc(N6CCc7cccc(C(=O)Nc8nc9ccccc9s8)c7C6)nc5C(=O)O)c(F)c4)CC3)c(F)c21 (stereo not drawn) [Compound 212, 6-(8-(benzo[d]thiazol-2-ylcarbamoyl)-3,4-dihydroisoquinolin-2(1H)-yl)-3-(4-(3-(1-(2-((3-(2,6-dioxopiperidin-3-yl)-7-fluoro-1-methyl-1H-indazol-6-yl)amino)-2-oxoethyl)piperidin-4-yl)propoxy)-2-fluorophenyl)picolinic acid]	10 to 100	B (30% ≤ Ymin < 50%)
